Like-named read-outs stand apart in the source and are kept apart here.
How the values were obtained:
[1] = Rate of clearance of the drug substance (total systemic clearance); assay type: in vivo; conditions: human, plasma; in adults
From the text: C is expressed in units of ml/hr and is the rate of clearance of the drug substance. Clearance may be determined experimentally in vivo by conventional known means using standard tests. For example it can be determined from the plasma concentration in response to a defined input of drug using the equation given below: Clearance (ml/hr)=Input rate (ng/hr)/Total plasma concentration (ng/ml)

[2] = Plasma bound fraction; assay type: in vitro ADME
From the text: PBF is the plasma bound fraction. Plasma bound fraction may be determined experimentally in vitro by conventional known means using standard tests (preferably a method employing equilibrium dialysis).

[3] = Peak plasma concentration after oral dosing of farglitazar; assay type: in vivo, human
From the text: Z is expressed in units of ng/ml and is the target local free (i.e. unbound) concentration that is expected to have a therapeutic effect against the skin condition. In the case of PPAR gamma agonists, Z should correspond to the peak plasma free drug concentration generated by dosing these drugs orally to treat effectively Type II diabetes mellitus. The appropriate value of Z may be determined experimentally in vivo by conventional known means using standard protocols.
The value Z for farglitazar is 0.31 ng/ml [Peak plasma concentration for a 5 mg dose is about 157 ng/ml; 0.31 is 157*(100-99.8)/100].

[4] = system: fasting plasma glucose in patients with type II diabetes; conditions: cited from earlier work

Row | SMILES | clearance [1] [mL/min] | Plasma bound fraction [2] [%] | Peak plasma concentration ([3]; 5 mg dose, total drug) | Z, target local free (unbound) concentration = peak plasma free drug concentration ([3]; 157*(100-99.8)/100, 5 mg dose) [ng/mL] | Time to achieve a reduction of fasting plasma glucose by 2 mmol/l ([4]; 2 mg b.i.d. dosage regimen) | Time to achieve a reduction of fasting plasma glucose by 2 mmol/l ([4]; 4 mg b.i.d. dosage regimen)
1 | Cc1oc(-c2ccccc2)nc1CCOc1ccc(C[C@H](Nc2ccccc2C(=O)c2ccccc2)C(=O)O)cc1 [farglitazar, N-(2-benzoylphenyl)-O-[2-(5-methyl-2-phenyl-4-oxazolyl)ethyl]-L-tyrosine] | 250 | 99.8 | about 157 ng/ml | 0.31 |  | 
2 | CN(CCOc1ccc(CC2SC(=O)NC2=O)cc1)c1ccccn1 (stereo not drawn) [rosiglitazone, 5-[4-[2-(N-methyl-N-(2-pyridyl)amino)ethoxy]benzyl]thiazolidine-2,4-dione] |  |  |  |  | about 8 weeks | about 4 weeks
